Assay [1] has as its system Kelly. Briefly: (§1) Increase in glycolysis in human Kelly cells assessed as conversion of glucose to lactate at 100 uM after 12 hrs relative to untreated control. It counts as functional.
For assay [2], the system named is SIMA. Description: Increase in glycolysis in human SiMa cells assessed as conversion of glucose to lactate at 100 uM after 12 hrs relative to untreated control. Format: functional.
In assay [3] the test system is LS. Briefly: (§2) Increase in glycolysis in human LS cells assessed as conversion of glucose to lactate at 100 uM after 12 hrs relative to untreated control. Format: functional.
In assay [4] the test system is SIMA. Briefly: Antiproliferative activity against human SiMa cells after 72 hrs by MTT assay. Format: functional, cell-based.
In assay [5] the test system is Kelly. Briefly: Antiproliferative activity against human Kelly cells after 72 hrs by MTT assay. Format: functional, cell-based. For orientation: Tetrazolium assays rely on reduction of a dye to a coloured formazan, in cell work by metabolically active cells.
Assay [6] concerns LS. Description: Antiproliferative activity against human LS cells after 72 hrs by MTT assay. It counts as functional, cell-based.
Assay [7] relates to SK-N-SH. Description: Antiproliferative activity against human SK-N-SH cells after 72 hrs by MTT assay. Format: functional, cell-based.
The nature of assay [8]: as §1. Format: functional.
Assay [9] in a line: as §2. Format: functional.
Assay [10] concerns SIMA. Briefly: Antiproliferative activity against human SiMa cells at 10 to 100 uM after 72 hrs by MTT assay. It counts as functional, cell-based.
Assay [11] relates to Kelly. Description: Antiproliferative activity against human Kelly cells at 10 to 100 uM after 72 hrs by MTT assay. Format: functional, cell-based.
The subject of assay [12] is SK-N-SH. Description: Antiproliferative activity against human SK-N-SH cells at 10 to 100 uM after 72 hrs by MTT assay. Format: functional, cell-based.
Assay [13] deals with LS. Description: Antiproliferative activity against human LS cells at 10 to 100 uM after 72 hrs by MTT assay. It counts as functional, cell-based.

Molecules are shown by their SMILES. Calls of active or inactive are those of the source. The calls are words filed in the database; no cut-off is given here.

Consider `CS(=O)(=O)OCCCCOc1cccc(CNC(=N)N)c1`, for which the outcome with Kelly [1], in the assay on SIMA [2] and in the assay on LS [3] was Active. In addition, the Activity result with SIMA [4], with Kelly [5], with LS [6] and in the assay on SK-N-SH [7] was “Dose-dependent effect” in each case.
Turning to `CS(=O)(=O)OCCCCOc1ccc(CNC(=N)N)cc1`, the result in the assay on Kelly [1], with SIMA [2] and in the assay with LS [3] was Active. The Activity entry in the assay with SIMA [4], in the assay on Kelly [5], in the assay on LS [6] and in the assay on SK-N-SH [7] was “Dose-dependent effect” each time.
Regarding `N=C(N)NCc1cccc(I)c1` [IOBENGUANE], the Activity in assay [8] is 74%; in the assay on SIMA [2] it was 98%; in assay [9] it was 81%. In addition, the outcome with SIMA [10], in the assay with Kelly [11], in the assay with SK-N-SH [12] and with LS [13] was Active.
`CS(=O)(=O)OCCCCOS(C)(=O)=O`: the result with Kelly [1], in the assay with SIMA [2] and in the assay on LS [3] was inactive. Besides, the outcome in the assay on SIMA [10], in the assay on Kelly [11], in the assay on SK-N-SH [12] and in the assay with LS [13] was Active.

Source of the values: ChEMBL document CHEMBL3286231, “Synthesis and biological effects of new hybrid compounds composed of benzylguanidines and the alkylating group of busulfan on neuroblastoma cells” (Bioorg Med Chem Lett, 2014).
